According to ChEMBL document CHEMBL1142732, “In-depth study of tripeptide-based alpha-ketoheterocycles as inhibitors of thrombin. Effective utilization of the S1' subsite and its implications to structure-based drug design” (J Med Chem, 2005):

How the values were obtained:
Serine protease 1 = biological target: T1, Serine protease 1 (Bos taurus, UniProt P00760); experiment: Binding affinity against bovine trypsin
T1 sequence (P00760 whole entry): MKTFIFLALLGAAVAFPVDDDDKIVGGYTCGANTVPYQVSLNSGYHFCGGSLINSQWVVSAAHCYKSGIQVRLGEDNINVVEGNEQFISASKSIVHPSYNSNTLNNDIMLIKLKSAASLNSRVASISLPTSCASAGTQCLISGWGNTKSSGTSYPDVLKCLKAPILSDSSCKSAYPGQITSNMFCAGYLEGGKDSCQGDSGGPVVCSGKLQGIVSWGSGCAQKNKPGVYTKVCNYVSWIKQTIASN

Prothrombin [1] = biological target: T2, Prothrombin (Homo sapiens, UniProt P00734); experiment: Inhibitory concentration against human alpha thrombin
Homo sapiens = species: Homo sapiens; experiment: Inhibitory concentration against gel filtered platelet aggregation induced by alpha thrombin; format: functional
Prothrombin [2] = biological target: T2, Prothrombin; experiment: Binding affinity determined against human alpha thrombin
Cavia porcellus = experiment: Percent change in blood pressure in guinea pig at 3 mg/kg dose

| Structure (SMILES) | Ki (Serine protease 1) | IC50 (Prothrombin [1]) | IC50 (Homo sapiens) | Ki (Prothrombin [2]) | Delta BP (Cavia porcellus) |
| --- | --- | --- | --- | --- | --- |
| CCCC(CCC)C(=O)N[C@@H](CC(=O)OC)C(=O)N1CCC[C@H]1C(=O)N[C@@H](CCCNC(=N)N)C(=O)c1nc2ccccc2s1 | 0.016 µM | 0.056 µM | 0.016 µM | 0.0014 µM |  |
| CN[C@H](Cc1ccccc1)C(=O)N1CCC[C@H]1C(=O)NC(CCCN=C(N)N)C(=O)c1nc2ccc(CO)cc2s1 (some centres undefined) | 0.0053 µM |  |  |  |  |
| CN[C@H](Cc1ccccc1)C(=O)N1CCC[C@H]1C(=O)NC(CCCN=C(N)N)C(=O)c1nc2ccccc2n1C (some centres undefined) | 0.29 µM | 0.11 µM | 0.059 µM | 0.0081 µM | -30% |
| CN[C@@H](C(=O)N1CCC[C@H]1C(=O)NC(CCCN=C(N)N)C(=O)c1nc2ccccc2s1)c1ccccc1 (some centres undefined) |  | 0.034 µM | 0.017 µM | 0.00046 µM | -63% |
| CN[C@H](Cc1ccccc1)C(=O)N1CCC[C@H]1C(=O)N[C@@H](Cc1cccc(C(=N)N)c1)C(=O)c1nc2ccccc2s1 | 0.0018 µM |  |  | 0.00099 µM |  |
| CCOC(=O)c1csc(C(=O)C(CCCN=C(N)N)NC(=O)[C@@H]2CCCN2C(=O)[C@@H](Cc2ccccc2)NC)n1 (some centres undefined) | 0.0054 µM | 0.12 µM |  | 0.0045 µM |  |
| CN[C@H](Cc1ccccc1)C(=O)N1CCC[C@H]1C(=O)N[C@@H](CCCN=C(N)N)C(O)c1nc2ccccc2s1 (stereo in doubt; form 2) | 250 µM | 17 µM |  | 1.6 µM |  |
| CN[C@H](Cc1ccccc1)C(=O)N1CCC[C@H]1C(=O)NC(CCCN=C(N)N)C(=O)c1nc2ccc(F)cc2s1 (some centres undefined) | 0.0015 µM |  |  |  |  |
| NC(N)=NCCCC(NC(=O)[C@@H]1CCCN1)C(=O)c1nc2ccccc2s1 (some centres undefined) | 0.25 µM |  |  |  |  |
| CN[C@H](Cc1c(F)c(F)c(F)c(F)c1F)C(=O)N1CCC[C@H]1C(=O)NC(CCCN=C(N)N)C(=O)c1nc2ccccc2s1 (some centres undefined) | 0.0093 µM | 0.15 µM |  | 0.0038 µM |  |
| Cc1cccc(C(C)(C)CN(CC(=O)N[C@@H](CCCN=C(N)N)C(=O)c2nc3ccccc3s2)C(=O)CCc2ccccc2)c1 | 0.057 µM | 4 µM |  | 0.4 µM |  |
| CN[C@H](Cc1ccccc1)C(=O)N1CCC[C@H]1C(=O)N[C@H](CCCN=C(N)N)C(=O)c1nc2ccccc2s1 |  | 0.08 µM |  | 0.017 µM |  |
| CN[C@H](Cc1ccccc1)C(=O)N1CCC[C@H]1C(=O)N[C@@H](CCCCN)C(=O)c1nc2ccccc2s1 | 0.0043 µM | 0.65 µM |  | 0.038 µM | -45% |
| CN[C@H](Cc1ccccc1)C(=O)N1CCC[C@H]1C(=O)N[C@@H](C[C@H]1CCCN(C(=N)N)C1)C(=O)c1nc2ccccc2s1 | 0.21 µM | 1 µM |  | 0.099 µM |  |
| CN[C@H](Cc1ccccc1)C(=O)N1CCC[C@H]1C(=O)N[C@H](CCCCN)C(=O)c1nc2ccccc2s1 | 0.02 µM |  |  | 0.21 µM | -41% |
| CN[C@H](Cc1ccccc1)C(=O)N1CCC[C@H]1C(=O)N[C@@H](CCCN=C(N)N)C(O)c1nc2ccccc2s1 (stereo in doubt; form 1) | 180 µM | 48 µM |  | 5.3 µM |  |
| CN[C@H](Cc1ccccc1)C(=O)N1CCC[C@H]1C(=O)N[C@H](Cc1cccc(C(=N)N)c1)C(=O)c1nc2ccccc2s1 | 2.6 µM | 0.37 µM |  | 0.015 µM |  |
| C[C@@](N)(Cc1ccccc1)C(=O)N1CCC[C@H]1C(=O)NC(CCCN=C(N)N)C(=O)c1nc2ccccc2s1 (some centres undefined) | 0.0039 µM |  |  |  |  |
| CN[C@H](CC1CCCCC1)C(=O)N1CCC[C@H]1C(=O)NC(CCCN=C(N)N)C(=O)c1nc2ccccc2s1 (some centres undefined) | 0.0039 µM |  | 0.028 µM |  | -49% |
| CN[C@H](Cc1ccccc1)C(=O)N1CCC[C@H]1C(=O)NC(CCCN=C(N)N)C(=O)c1nc2ccccc2c(=O)[nH]1 (some centres undefined) | 0.0083 µM | 0.106 µM |  | 0.015 µM |  |
| CN[C@H](Cc1ccccc1)C(=O)N1CCC[C@H]1C(=O)N[C@@H](CCCNC(=N)N)C(=O)c1nccs1 | 0.0012 µM | 0.019 µM |  |  |  |
| CN[C@H](Cc1ccccc1)C(=O)N1CCC[C@H]1C(=O)NC(CCCN=C(N)N)C(=O)c1nc2ccccc2o1 (some centres undefined) | 0.013 µM | 0.11 µM |  | 0.0062 µM |  |
| CN[C@H](Cc1ccccc1)C(=O)N1CCC[C@H]1C(=O)N[C@H](C=O)CCCN=C(N)N (stereo in doubt) |  |  |  | 0.018 µM |  |

| Structure (SMILES) | Ki (Serine protease 1) | IC50 (Prothrombin [1]) | IC50 (Homo sapiens) | Ki (Prothrombin [2]) | Delta BP (Cavia porcellus) |
| --- | --- | --- | --- | --- | --- |
| CN[C@@H](C(=O)N1CCC[C@H]1C(=O)NC(CCCN=C(N)N)C(=O)c1nc2ccccc2s1)C1CCCCC1 (some centres undefined) | 0.0012 µM | 0.0053 µM | 0.017 µM |  | -21% |
| CNC1(C(=O)N2CCC[C@H]2C(=O)NC(CCCN=C(N)N)C(=O)c2nc3ccccc3s2)CCCCC1 (some centres undefined) | 0.0026 µM | 0.49 µM |  | 0.073 µM |  |
| CN[C@H](Cc1ccccc1)C(=O)N1CCC[C@H]1C(=O)NC(CCCN=C(N)N)C(=O)c1nc2ccc(O)cc2s1 (some centres undefined) |  |  |  |  | -34% |
| CN[C@H](Cc1ccccc1)C(=O)N1CCC[C@H]1C(=O)NC(CCCN=C(N)N)C(=O)c1nc(C(=O)NCCc2ccccc2)cs1 (some centres undefined) | 0.005 µM | 0.83 µM |  | 0.12 µM |  |
| CNC(C(=O)N1CCC[C@H]1C(=O)NC(CCCN=C(N)N)C(=O)c1nc2ccccc2s1)(c1ccccc1)c1ccccc1 (some centres undefined) | 0.0018 µM | 0.015 µM |  | 0.0021 µM |  |
| CN[C@H](Cc1ccccc1)C(=O)N1CCC[C@H]1C(=O)N[C@H](C(=O)c1nc2ccccc2s1)[C@H]1CC[C@H](CN)CC1 | 0.054 µM | 17 µM |  | 0.92 µM |  |
| CN[C@H](Cc1ccccc1)C(=O)N1CCC[C@H]1C(=O)N[C@@H](CCCOC)C(=O)c1nc2ccccc2s1 | 12 µM | 46 µM |  | 3.9 µM |  |
| N=C(N)NCCCC(NC(=O)C1CCCC1)C(=O)c1nc2ccccc2s1 (centres undefined) | 0.03 µM |  |  |  |  |
| CN[C@H](Cc1ccccc1)C(=O)N1CCC[C@H]1C(=O)N[C@@H](CCCNC(=N)N)C(=O)c1ccccn1 |  | 0.93 µM |  |  |  |
| CC(=O)N[C@H](Cc1ccccc1)C(=O)N1CCC[C@H]1C(=O)NC(CCCN=C(N)N)C(=O)c1nc2ccccc2s1 (some centres undefined) | 0.0024 µM | 0.43 µM |  |  |  |
| CCS(=O)(=O)N[C@H](Cc1ccccc1)C(=O)N1CCC[C@H]1C(=O)NC(C(=O)c1nc2ccccc2s1)C1CCC(N)CC1 (some centres undefined) | 0.087 µM | 0.46 µM | 0.12 µM | 0.053 µM |  |
| CN[C@H](Cc1ccc(F)cc1)C(=O)N1CCC[C@H]1C(=O)NC(CCCN=C(N)N)C(=O)c1nc2ccccc2s1 (some centres undefined) | 0.003 µM | 0.015 µM |  | 0.00012 µM |  |
| CN[C@H](Cc1ccccc1)C(=O)N1CCC[C@H]1C(=O)NC(CCCN=C(N)N)C(=O)c1nc2ccccc2[nH]1 (some centres undefined) | 0.012 µM | 0.36 µM |  | 0.0096 µM |  |
| CN[C@H](Cc1ccccc1)C(=O)N1CCC[C@H]1C(=O)N[C@@H](C[C@@H]1CCCN(C(=N)N)C1)C(=O)c1nc2ccccc2s1 | 0.008 µM | 0.051 µM |  | 0.0016 µM |  |
| CN[C@H](Cc1ccccc1)C(=O)N1CCC[C@H]1C(=O)NC(CCCN=C(N)N)C(=O)c1cc2ccccc2s1 (some centres undefined) | 1.3 µM | 13 µM |  | 2.4 µM |  |
| CC(=O)N1CCC[C@H]1C(=O)NC(CCCN=C(N)N)C(=O)c1nc2ccccc2s1 (some centres undefined) |  | 14 µM |  |  |  |
| CN[C@H](Cc1ccccc1)C(=O)N1CCC[C@H]1C(=O)N(C)[C@@H](CCCN=C(N)N)C(=O)c1nc2ccccc2s1 | 5.3 µM | 21 µM |  | 2.1 µM |  |
| CN[C@H](Cc1ccccc1)C(=O)N1CCC[C@H]1C(=O)N[C@H](C[C@H]1CCCN(C(=N)N)C1)C(=O)c1nc2ccccc2s1 | 0.54 µM |  |  | 0.38 µM |  |
| NC(N)=NCCCC(NC=O)C(=O)c1nc2ccccc2s1 (centres undefined) | 1.3 µM | > 50 µM |  |  |  |
| CN[C@H](Cc1ccccc1)C(=O)N1CCC[C@H]1C(=O)NC(C(=O)c1nc2ccccc2s1)C1CCC(N)CC1 (some centres undefined) | 0.33 µM | 1.9 µM | 0.076 µM | 0.11 µM | -25% |
| CN[C@H](Cc1ccccc1)C(=O)N1CCC[C@H]1C(=O)NC(CCCN=C(N)N)C(=O)c1nc2ccc(OC)cc2s1 (some centres undefined) | 0.002 µM |  |  |  | -44% |
| CN[C@H](Cc1ccccc1)C(=O)N1CCC[C@H]1C(=O)NC(CCCN=C(N)N)C(=O)c1nc(C(=O)O)cs1 (some centres undefined) | 0.006 µM | 0.112 µM |  | 0.0091 µM |  |
